Assays:
MAT2A enzyme = biological target: T1, MAT2A enzyme (Homo sapiens, UniProt P31153); test: Enzymatic testing method for MAT2A (Biomol Green, OD620); assay type: biochemical; conditions: score by IC50 for inhibiting MAT2A; read-out: MAT2A inhibition score
T1 construct: purchased BPS 71401
Outline: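 Human MAT2A (final 2.20 ng/L) preincubated 30 min at 25 °C with compound (8 points from 1 μM, ½-log steps) in Tris-HCl pH 8.0 with KCl, MgCl2, EDTA. L-methionine and ATP added, 150 min at 25 °C; phosphate detected by Biomol Green (OD620); IC50 from variable-slope fit.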

HCT116 MTAP −/− cells = test: Cell testing method: HCT116 MTAP-/- cell proliferation inhibition (CellTiter-Glo, 120 h); assay type: cell-based; conditions: Homo sapiens, HCT-116; score by IC50 for inhibiting HCT116 MTAP−/− cells
Description: HCT116 MTAP −/− cells (purchased from Horizon Discovery): human colorectal cancer cell lines with MTAP gene deletion were cultured in medium RPMI 1640+10% FBS (Fetal bovine serum). On day 0 of the experiment, the live cell density of the foregoing cells in logarithmic growth phase was adjusted to 5000 cells/ml, the cells were inoculated to a 96-well plate by an amount of 100 μl/well, and a blank group was set in parallel; and the inoculated cell plate was put into a 37° C., 5% CO2 incubator for overnight culture.
On day 1 of the experiment, the overnight cultured cell plate was taken out, the supernatant was discarded, 80 μl of serum-free RPMI 1640 medium was added to each well, and place the cells in an incubator for starvation cultivation for 4 h. The compound to be tested was dissolved in DMSO (dimethyl sulfoxide) to prepare a 10 mM compound stock solution. After starvation, the cell plate was taken out, and 80 μl of RPMI 1640+20% FBS medium was added to each well; the cell plate was placed on an automatic liquid dispenser D300e (Tecan), and a dosing program was set as follows: a maximum concentration of the compound to be tested was 30 μM, the compound was diluted with DMSO by a 3 times concentration gradient, there was a total of 10 concentrations, two duplicate wells were set for each concentration, and the DMSO final concentration in each well of the 96-well plate was 0.3%, v/v. The pre-prepared 10 mM stock solution of the compound to be tested was taken out, and the above dosing program was run for dosing. After the dosing was completed, the cell plate was placed in incubator and culture for 120 h.
On day 6 of the experiment, the cell plate was taken out, 50 μl of CellTiter-Go® (purchased from Promega) was added to each well, and fluorescence signal was measured on Envision (PerkinElmer) according to operation procedures in the manual.
A dose-effect curve: log(inhibitor) vs. response-Variable slope was fitted by using GraphPad Prism 5 software to obtain an IC50 value of the compound for inhibiting cell proliferation inhibition. A formula for calculating an inhibition rate was: […]
Wherein, • Signal value of tested compound: mean fluorescence signal of cells group+medium group+compound group; • Signal value of blank group: mean fluorescence signal of medium group; • Signal value of negative control group: mean fluorescence signal of cells group+medium group.

[1] = system: HCT116 MTAP−/− subcutaneous xenograft tumors; test: In vivo effect experiment of HCT116 MTAP−/− subcutaneous xenograft tumors in nude mice; conditions: 5 mg/kg daily intragastric
Description: Female Nu/Nu nude mice (6-8 weeks old, Beijing Vital River Laboratory Animal Technology Co., Ltd.) were raised in an SPF animal room at a temperature of 20° C.-25° C., relative humidity of 40%-70%, and light and dark lighting for 12 hours each; and animals can freely drink and eat. The animals were adaptively fed before experiment.
HCT116 MTAP^−/− cells (Horizon) were cultured in vitro for proliferation, cells in logarithmic growth phase were collected and resuspended in a serum-free RPMI-1640 medium, and the cell concentration was adjusted to 6.0×10^7 cells/mL; and 100 μL of the cell suspension was injected subcutaneously into the right anterior armpit of each nude mouse by using a 1 mL syringe, the status of the animals was observed regularly, and the growth of transplanted tumors was monitored regularly.
When the tumor volume reached 100-300 mm^3, animals with too large or too small tumor volume or uncertain tumor formation were eliminated, and tumor bearing mice with good health and similar tumor volume were selected and randomly grouped, 6 mice in each group; the administration group received daily intragastric administration (AG-270: 50 mg/kg, with a structure shown below; compound to be tested: 1-7.5 mg/kg); and the control group was intragastrically administrated with the same volume of blank solvent. In the administration period, the tumor diameter was measured twice a week, the tumor volume was calculated, the animals were weighed, and their weight was recorded.
A formula for calculating tumor volume (TV) is: Tv=½×a×b^2, wherein a represents long diameter of the tumor, and b represents short diameter of the tumor.
Experimental data is calculated and statistically processed by using Microsoft Office Excel 2007 software. Unless otherwise specified, the data were expressed as mean±standard error (Mean SEM), and t-test is used for comparison between two groups.
Growth curves of tumor volume in each group are shown in FIG. 1, results of SAM test in tumors of each group are shown in FIG. 2, and the mean tumor volume and SEM in each group are shown in Table 2 below: […]

T1 sequence (P31153 whole entry): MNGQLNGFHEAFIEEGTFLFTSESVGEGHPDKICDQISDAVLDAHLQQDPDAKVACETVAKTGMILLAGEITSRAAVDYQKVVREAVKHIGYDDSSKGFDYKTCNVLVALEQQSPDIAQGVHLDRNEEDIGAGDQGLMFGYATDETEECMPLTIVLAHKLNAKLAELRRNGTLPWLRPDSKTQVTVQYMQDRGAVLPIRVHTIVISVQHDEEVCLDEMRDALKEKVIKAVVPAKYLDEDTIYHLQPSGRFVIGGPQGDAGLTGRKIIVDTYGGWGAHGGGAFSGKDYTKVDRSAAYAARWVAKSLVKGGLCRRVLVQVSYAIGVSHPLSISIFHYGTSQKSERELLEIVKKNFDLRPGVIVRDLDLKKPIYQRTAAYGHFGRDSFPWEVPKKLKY

Q: For `Cn1cc2cc(-c3cn4ccc(C5CC5)nc4c(-c4ccc(OC(F)F)cc4)c3=O)ccc2n1` [Example 25, 2-cyclopropyl-9-[4-(difluoromethoxy)phenyl]-7-(2-methyl-2H-indazol-5-yl)-8H-pyrido[1,2-a]pyrimidin-8-one], which IC50 (MAT2A enzyme) is on record?
A: The IC50 was < 50 nM.

Q: What about the IC50 (HCT116 MTAP −/− cells) of the same compound?
A: The IC50 was < 150 nM.

Q: What about the “Tumor volume, mean volume” value ([1]; day 1 of administration) of the same compound?
A: Its value is 152 mm^3.

Q: And the “Tumor volume, mean volume” value ([1]; day 4 of administration)?
A: Its value is 174 mm^3.

Q: What about the “Tumor volume, mean volume” value ([1]; day 6 of administration) of the same compound?
A: The value was 186 mm^3.

Q: What about the “Tumor volume, mean volume” value ([1]; day 8 of administration) of the same compound?
A: The value was 219 mm^3.

Q: What about the “Tumor volume, mean volume” value ([1]; day 11 of administration) of the same compound?
A: The value was 305 mm^3.

Q: And the “Tumor volume, mean volume” value ([1]; day 13 of administration)?
A: The value was 378 mm^3.

Q: What about the “Tumor volume, mean volume” value ([1]; day 15 of administration) of the same compound?
A: Its value is 417 mm^3.

Source: patent US20240287063A1, “METHIONINE ADENOSYLTRANSFERASE 2A INHIBITOR” (NANJING CHIA TAI TIANQING PHARMACEUTICAL CO., LTD., priority 2021, published 2024)
